# According to patent US20260297081A1, “COMPOUNDS AND METHODS OF TREATING CANCERS” (Cullgen Inc., priority 2023, published 2026):
# Columns and labels:
# MCF7 cells = assay: Anti-proliferation (viability) of MCF7 cells (Table 7, FIG. 2B); assay type: cell-based; conditions: Homo sapiens, MCF7, MCF7 cells, 3-6 days, 10-point serial dilution; read-out: GI IC50 in MCF-7
# CDK4 = CDK4 (Homo sapiens, UniProt P11802+Q16531); assay: HiBiT detection of HiBiT-tagged CDK4 protein level in MCF7 cells, 16 hours (Table 8); assay type: cell-based; parameters: expressed in transfected cells; host or cells: MCF7; conditions: MCF7 cells stably expressing HiBiT tagged target proteins; for activity at 0.01 µM: 10 nM, read-out: % CDK4 Relative Level (10 nM); for activity at 0.1 µM: 100 nM, read-out: % CDK4 Relative Level (100 nM)
# CDK4, sequence (P11802 whole entry): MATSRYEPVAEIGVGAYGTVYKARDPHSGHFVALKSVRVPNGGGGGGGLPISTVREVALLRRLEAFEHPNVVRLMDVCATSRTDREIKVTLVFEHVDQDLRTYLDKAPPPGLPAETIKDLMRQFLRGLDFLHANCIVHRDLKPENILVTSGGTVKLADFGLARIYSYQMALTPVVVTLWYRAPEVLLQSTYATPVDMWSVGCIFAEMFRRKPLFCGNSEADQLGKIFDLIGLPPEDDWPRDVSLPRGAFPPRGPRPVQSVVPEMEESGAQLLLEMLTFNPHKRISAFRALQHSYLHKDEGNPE
# CDK4, sequence (P24385 whole entry partner): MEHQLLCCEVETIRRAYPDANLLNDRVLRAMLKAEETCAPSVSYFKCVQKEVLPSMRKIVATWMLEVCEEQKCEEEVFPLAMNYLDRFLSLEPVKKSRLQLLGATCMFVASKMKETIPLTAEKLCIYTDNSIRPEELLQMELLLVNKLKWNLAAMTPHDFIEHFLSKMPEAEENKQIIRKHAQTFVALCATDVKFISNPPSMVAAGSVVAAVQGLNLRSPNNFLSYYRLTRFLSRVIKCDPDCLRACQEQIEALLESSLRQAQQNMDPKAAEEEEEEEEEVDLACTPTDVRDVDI
# CDK4, sequence (Q16531 2-1140 limits assumed): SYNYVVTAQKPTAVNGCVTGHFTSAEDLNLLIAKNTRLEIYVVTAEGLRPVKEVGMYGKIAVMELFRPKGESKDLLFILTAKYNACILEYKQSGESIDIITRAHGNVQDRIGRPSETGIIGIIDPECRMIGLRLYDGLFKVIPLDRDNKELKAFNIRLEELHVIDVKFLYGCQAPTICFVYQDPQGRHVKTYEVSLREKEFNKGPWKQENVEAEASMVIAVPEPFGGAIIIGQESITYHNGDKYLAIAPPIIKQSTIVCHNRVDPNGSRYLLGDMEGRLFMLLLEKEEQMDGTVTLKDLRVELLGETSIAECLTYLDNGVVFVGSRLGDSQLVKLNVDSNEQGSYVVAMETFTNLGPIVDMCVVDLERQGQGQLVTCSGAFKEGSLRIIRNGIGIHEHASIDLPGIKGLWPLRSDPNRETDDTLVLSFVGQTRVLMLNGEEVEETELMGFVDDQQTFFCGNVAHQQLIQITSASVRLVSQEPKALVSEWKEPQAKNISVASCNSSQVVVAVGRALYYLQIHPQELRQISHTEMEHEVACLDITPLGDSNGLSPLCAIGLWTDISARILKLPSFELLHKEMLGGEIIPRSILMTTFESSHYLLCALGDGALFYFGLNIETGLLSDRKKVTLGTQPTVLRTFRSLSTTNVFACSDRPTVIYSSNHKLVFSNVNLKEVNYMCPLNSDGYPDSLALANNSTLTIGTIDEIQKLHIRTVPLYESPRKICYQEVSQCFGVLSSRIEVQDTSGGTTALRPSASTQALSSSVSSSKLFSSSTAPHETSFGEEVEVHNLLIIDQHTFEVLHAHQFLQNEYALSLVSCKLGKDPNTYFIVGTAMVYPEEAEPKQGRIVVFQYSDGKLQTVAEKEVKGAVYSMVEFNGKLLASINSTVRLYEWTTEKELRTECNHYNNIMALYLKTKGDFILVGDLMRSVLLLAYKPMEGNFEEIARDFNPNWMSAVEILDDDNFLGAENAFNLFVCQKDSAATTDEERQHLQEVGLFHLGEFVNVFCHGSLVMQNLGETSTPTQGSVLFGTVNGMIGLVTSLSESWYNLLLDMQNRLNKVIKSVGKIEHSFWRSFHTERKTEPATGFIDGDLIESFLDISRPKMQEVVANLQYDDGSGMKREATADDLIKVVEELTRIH
# Experimental: HiBiT detection system quantitatively measures total amounts of HiBiT-tagged proteins using a luminescent based method. MCF7 cells stably expressing HiBiT tagged target proteins were treated with heterobifunctional compounds at indicated concentrations for 16 hours, then lysed with Nano-Glo HiBiT Lytic detection reagents.
Compound,IC50 (MCF7 cells) [nM],activity at 0.01 µM (CDK4) [%],activity at 0.1 µM (CDK4) [%]
"CNc1ccc(C(=O)Nc2ccc(N(C)C)nn2)c(NCCCCCC(=O)N2CCN(Cc3ccc(Nc4ncc(F)c(-c5cc(F)c6nc(C)n(C(C)C)c6c5)n4)nc3)CC2)n1 [CPD-603, N-(6-(dimethylamino)pyridazin-3-yl)-2-((6-(4-((6-((5-fluoro-4-(4-fluoro-1-isopropyl-2-methyl-1H-benzo[d]imidazol-6-yl)pyrimidin-2-yl)amino)pyridin-3-yl)methyl)piperazin-1-yl)-6-oxohexyl)amino)-6-(methylamino)nicotinamide]",> 100,55 to 85,55 to 85
"CNc1ccc(C(=O)Nc2ccc(N(C)C)nn2)c(NCCOCCOCCC(=O)N2CCN(Cc3ccc(Nc4ncc(F)c(-c5cc(F)c6nc(C)n(C(C)C)c6c5)n4)nc3)CC2)n1 [CPD-607, N-(6-(dimethylamino)pyridazin-3-yl)-2-((2-(2-(3-(4-((6-((5-fluoro-4-(4-fluoro-1-isopropyl-2-methyl-1H-benzo[d]imidazol-6-yl)pyrimidin-2-yl)amino)pyridin-3-yl)methyl)piperazin-1-yl)-3-oxopropoxy)ethoxy)ethyl)amino)-6-(methylamino)nicotinamide]",> 100,> 85,> 85
"CNc1ccc(C(=O)Nc2ccc(N(C)C)nn2)c(NCCNC(=O)CN2CCN(Cc3ccc(Nc4ncc(F)c(-c5cc(F)c6nc(C)n(C(C)C)c6c5)n4)nc3)CC2)n1 [CPD-608, N-(6-(dimethylamino)pyridazin-3-yl)-2-((2-(2-(4-((6-((5-fluoro-4-(4-fluoro-1-isopropyl-2-methyl-1H-benzo[d]imidazol-6-yl)pyrimidin-2-yl)amino)pyridin-3-yl)methyl)piperazin-1-yl)acetamido)ethyl)amino)-6-(methylamino)nicotinamide]",> 100,> 85,55 to 85
"CNc1ccc(C(=O)Nc2ccc(N(C)C)nn2)c(NCCCC(=O)N2CCN(c3ccc(Nc4ncc5cc(C(=O)N(C)C)n(C6CCCC6)c5n4)nc3)CC2)n1 [CPD-617, 7-cyclopentyl-2-((5-(4-(4-((3-((6-(dimethylamino)pyridazin-3-yl)carbamoyl)-6-(methylamino)pyridin-2-yl)amino)butanoyl)piperazin-1-yl)pyridin-2-yl)amino)-N,N-dimethyl-7H-pyrrolo[2,3-d]pyrimidine-6-carboxamide]",> 100,> 85,> 85
"CNc1ccc(C(=O)Nc2ccc(N(C)C)nn2)c(NCCCCC(=O)N2CCN(c3ccc(Nc4ncc5cc(C(=O)N(C)C)n(C6CCCC6)c5n4)nc3)CC2)n1 [CPD-618, 7-cyclopentyl-2-((5-(4-(5-((3-((6-(dimethylamino)pyridazin-3-yl)carbamoyl)-6-(methylamino)pyridin-2-yl)amino)pentanoyl)piperazin-1-yl)pyridin-2-yl)amino)-N,N-dimethyl-7H-pyrrolo[2,3-d]pyrimidine-6-carboxamide]",> 100,> 85,55 to 85
"CNc1ccc(C(=O)Nc2ccc(N(C)C)nn2)c(NCCCCCCC(=O)N2CCN(c3ccc(Nc4ncc5cc(C(=O)N(C)C)n(C6CCCC6)c5n4)nc3)CC2)n1 [CPD-620, 7-cyclopentyl-2-((5-(4-(7-((3-((6-(dimethylamino)pyridazin-3-yl)carbamoyl)-6-(methylamino)pyridin-2-yl)amino)heptanoyl)piperazin-1-yl)pyridin-2-yl)amino)-N,N-dimethyl-7H-pyrrolo[2,3-d]pyrimidine-6-carboxamide]",> 100,55 to 85,55 to 85
"CNc1ccc(C(=O)Nc2ccc(N(C)C)nn2)c(NCCCCCCCC(=O)N2CCN(c3ccc(Nc4ncc5cc(C(=O)N(C)C)n(C6CCCC6)c5n4)nc3)CC2)n1 [CPD-621, 7-cyclopentyl-2-((5-(4-(8-((3-((6-(dimethylamino)pyridazin-3-yl)carbamoyl)-6-(methylamino)pyridin-2-yl)amino)octanoyl)piperazin-1-yl)pyridin-2-yl)amino)-N,N-dimethyl-7H-pyrrolo[2,3-d]pyrimidine-6-carboxamide]",> 100,55 to 85,55 to 85
"CNc1ccc(C(=O)Nc2ccc(N(C)C)nn2)c(NCCOCCC(=O)N2CCN(c3ccc(Nc4ncc5cc(C(=O)N(C)C)n(C6CCCC6)c5n4)nc3)CC2)n1 [CPD-622, 7-cyclopentyl-2-((5-(4-(3-(2-((3-((6-(dimethylamino)pyridazin-3-yl)carbamoyl)-6-(methylamino)pyridin-2-yl)amino)ethoxy)propanoyl)piperazin-1-yl)pyridin-2-yl)amino)-N,N-dimethyl-7H-pyrrolo[2,3-d]pyrimidine-6-carboxamide]",> 100,55 to 85,55 to 85
"CNc1ccc(C(=O)Nc2ccc(N(C)C)nn2)c(NCCCNC(=O)CN2CCN(c3ccc(Nc4ncc5cc(C(=O)N(C)C)n(C6CCCC6)c5n4)nc3)CC2)n1 [CPD-625, 7-cyclopentyl-2-((5-(4-(2-((3-((3-((6-(dimethylamino)pyridazin-3-yl)carbamoyl)-6-(methylamino)pyridin-2-yl)amino)propyl)amino)-2-oxoethyl)piperazin-1-yl)pyridin-2-yl)amino)-N,N-dimethyl-7H-pyrrolo[2,3-d]pyrimidine-6-carboxamide]",> 100,55 to 85,55 to 85
"CNc1ccc(C(=O)Nc2ccc(N(C)C)nn2)c(NCCCCNC(=O)CN2CCN(c3ccc(Nc4ncc5cc(C(=O)N(C)C)n(C6CCCC6)c5n4)nc3)CC2)n1 [CPD-626, 7-cyclopentyl-2-((5-(4-(2-((4-((3-((6-(dimethylamino)pyridazin-3-yl)carbamoyl)-6-(methylamino)pyridin-2-yl)amino)butyl)amino)-2-oxoethyl)piperazin-1-yl)pyridin-2-yl)amino)-N,N-dimethyl-7H-pyrrolo[2,3-d]pyrimidine-6-carboxamide]",> 100,55 to 85,55 to 85
"CNc1ccc(C(=O)Nc2ccc(N(C)C)nn2)c(NCCCCCNC(=O)CN2CCN(c3ccc(Nc4ncc5cc(C(=O)N(C)C)n(C6CCCC6)c5n4)nc3)CC2)n1 [CPD-627, 7-cyclopentyl-2-((5-(4-(2-((5-((3-((6-(dimethylamino)pyridazin-3-yl)carbamoyl)-6-(methylamino)pyridin-2-yl)amino)pentyl)amino)-2-oxoethyl)piperazin-1-yl)pyridin-2-yl)amino)-N,N-dimethyl-7H-pyrrolo[2,3-d]pyrimidine-6-carboxamide]",> 100,55 to 85,55 to 85
"CNc1ccc(C(=O)Nc2ccc(N(C)C)nn2)c(NCCCCCCNC(=O)CN2CCN(c3ccc(Nc4ncc5cc(C(=O)N(C)C)n(C6CCCC6)c5n4)nc3)CC2)n1 [CPD-628, 7-cyclopentyl-2-((5-(4-(2-((6-((3-((6-(dimethylamino)pyridazin-3-yl)carbamoyl)-6-(methylamino)pyridin-2-yl)amino)hexyl)amino)-2-oxoethyl)piperazin-1-yl)pyridin-2-yl)amino)-N,N-dimethyl-7H-pyrrolo[2,3-d]pyrimidine-6-carboxamide]",> 100,55 to 85,55 to 85
"CNc1ccc(C(=O)Nc2ccc(N(C)C)nn2)c(NCCCCCCCNC(=O)CN2CCN(c3ccc(Nc4ncc5cc(C(=O)N(C)C)n(C6CCCC6)c5n4)nc3)CC2)n1 [CPD-629, 7-cyclopentyl-2-((5-(4-(2-((7-((3-((6-(dimethylamino)pyridazin-3-yl)carbamoyl)-6-(methylamino)pyridin-2-yl)amino)heptyl)amino)-2-oxoethyl)piperazin-1-yl)pyridin-2-yl)amino)-N,N-dimethyl-7H-pyrrolo[2,3-d]pyrimidine-6-carboxamide]",> 100,55 to 85,55 to 85
"CNc1ccc(C(=O)Nc2ccc(N(C)C)nn2)c(NCCCCCCCCNC(=O)CN2CCN(c3ccc(Nc4ncc5cc(C(=O)N(C)C)n(C6CCCC6)c5n4)nc3)CC2)n1 [CPD-630, 7-cyclopentyl-2-((5-(4-(2-((8-((3-((6-(dimethylamino)pyridazin-3-yl)carbamoyl)-6-(methylamino)pyridin-2-yl)amino)octyl)amino)-2-oxoethyl)piperazin-1-yl)pyridin-2-yl)amino)-N,N-dimethyl-7H-pyrrolo[2,3-d]pyrimidine-6-carboxamide]",> 100,55 to 85,55 to 85
"CNc1ccc(C(=O)Nc2ccc(N(C)C)nn2)c(NCCCC(=O)N2CCN(c3ccc(Nc4ncc5cc6n(c5n4)C4(CCCCC4)CNC6=O)nc3)CC2)n1 [CPD-633, N-(6-(dimethylamino)pyridazin-3-yl)-6-(methylamino)-2-((4-oxo-4-(4-(6-((6′-oxo-7′,8′-dihydro-6′H-spiro[cyclohexane-1,9′-pyrazino[1′,2′:1,5]pyrrolo[2,3-d]pyrimidin]-2′-yl)amnion)pyridin-3-yl)piperazin-1-yl)butyl)amino)nicotinamide]",> 100,55 to 85,> 85
"CNc1ccc(C(=O)Nc2ccc(N(C)C)nn2)c(NCCCCC(=O)N2CCN(c3ccc(Nc4ncc5cc6n(c5n4)C4(CCCCC4)CNC6=O)nc3)CC2)n1 [CPD-634, N-(6-(dimethylamino)pyridazin-3-yl)-6-(methylamino)-2-((5-oxo-5-(4-(6-((6′-oxo-7′,8′-dihydro-6′H-spiro[cyclohexane-1,9′-pyrazino[1′,2′:1,5]pyrrolo[2,3-d]pyrimidin]-2′-yl)amino)pyridin-3-yl)piperazin-1-yl)pentyl)amino)nicotinamide]",> 100,55 to 85,55 to 85
